Experimental findings from US7847063B2 (Sanwa Kagaku Kenkyusho Co., Ltd., priority 2003, dated 2010) are described below.

One data set deals with Langerhans islets. As to the kind of experiment: Insulin secretion-promoting activity in isolated Langerhans islets. Format: cell-based, ICR mouse. The note with it: 16.7 mM glucose, 37° C. 30 min, FIG. 13. The text has this: Langerhans islets were extracted from ICR mouse pancreas with collagenase, 2 to 3 Langerhans islets were placed per well of 24-well plates, and cultured overnight.

Another data set concerns the target T1, human GLP-1 receptor (Homo sapiens, UniProt P43220).
T1 construct: expressed in transfected cells; host or cells: Chinese hamster ovary CHO-K1 cells
As to the kind of experiment: Cyclic AMP production activity in CHO-K1 cells expressing human GLP-1 receptors. The note with it: compared with native GLP-1; 37° C. 30 min; FIG. 7. Format: cell-based. The protocol:
10 μl of 5N hydrochloric acid was added to the buffer to stop the incubation.

Data set [1] deals with T2, trypsin (Sus scrofa, UniProt P00761). The settings on record: pH 7.8.
Experimental: 5 μl of 500 μg/ml trypsin solution (Promega: Cat. No. V5113) was added to 100 μl of this solution, and reacted at 37° C. for 1 hour. The reaction was stopped by adding 1200 μl of 71.5% ethanol (final 65%). The supernatant was collected by centrifugation at 15,000 rpm at 4° C. for 5 min, and evaporation was carried out. The dried solids were dissolved in distilled water and used for measuring activity.
The reaction was stopped by adding 1200 μl of 71.5% ethanol (final 65%). The supernatant was collected by centrifugation of 15,000 rpm at 4° C. for 5 min and evaporation was carried out. The dried solids were dissolved in distilled water and used for measuring the activity.
Data set [2] can be described thus: Hypoglycemic effect in oral glucose tolerance test (OGTT) by subcutaneous administration. Format: in vivo. The note with it: mice fasted overnight, 1 g/kg glucose orally, peptide 5, 20 μg/kg dorsal subcutaneously; FIG. 14. The method, then: Physiological saline was administered to the control group. Before loading glucose and 20, 60, 120 min after loading, blood was collected chronologically from subocular venous plexus, to measure blood glucose level. […] Moreover, the action continued until 120 min after the administration (FIG. 15).

Another data set concerns the target DPP-IV (Sus scrofa, UniProt P22411).
Data set [3] addresses T2, trypsin.
Experimental: To this diluent, 6 μl of 83 μg/ml trypsin solution (Promega: Cat. No. V5113) was added. The resultant was reacted at 37° C. for 1, 2, 4, 6 or 20 hours, and then the reaction was stopped by adding 1200 μl of 71.5% ethanol (final 65%). The supernatant was collected by centrifugation at 15,000 rpm at 4° C. for 5 min and evaporation was carried out. The dried solids were dissolved in distilled water and the activity was measured.

Ends that are not written are not given here.

T2 sequence (P00761 9-231): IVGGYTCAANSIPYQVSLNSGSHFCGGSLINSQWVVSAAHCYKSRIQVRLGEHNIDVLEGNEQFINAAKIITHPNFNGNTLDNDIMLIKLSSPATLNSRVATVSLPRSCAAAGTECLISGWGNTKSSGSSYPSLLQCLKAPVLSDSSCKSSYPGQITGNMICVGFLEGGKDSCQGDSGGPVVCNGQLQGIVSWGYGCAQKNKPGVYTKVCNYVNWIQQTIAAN
Sequence of DPP-IV (P22411 whole entry): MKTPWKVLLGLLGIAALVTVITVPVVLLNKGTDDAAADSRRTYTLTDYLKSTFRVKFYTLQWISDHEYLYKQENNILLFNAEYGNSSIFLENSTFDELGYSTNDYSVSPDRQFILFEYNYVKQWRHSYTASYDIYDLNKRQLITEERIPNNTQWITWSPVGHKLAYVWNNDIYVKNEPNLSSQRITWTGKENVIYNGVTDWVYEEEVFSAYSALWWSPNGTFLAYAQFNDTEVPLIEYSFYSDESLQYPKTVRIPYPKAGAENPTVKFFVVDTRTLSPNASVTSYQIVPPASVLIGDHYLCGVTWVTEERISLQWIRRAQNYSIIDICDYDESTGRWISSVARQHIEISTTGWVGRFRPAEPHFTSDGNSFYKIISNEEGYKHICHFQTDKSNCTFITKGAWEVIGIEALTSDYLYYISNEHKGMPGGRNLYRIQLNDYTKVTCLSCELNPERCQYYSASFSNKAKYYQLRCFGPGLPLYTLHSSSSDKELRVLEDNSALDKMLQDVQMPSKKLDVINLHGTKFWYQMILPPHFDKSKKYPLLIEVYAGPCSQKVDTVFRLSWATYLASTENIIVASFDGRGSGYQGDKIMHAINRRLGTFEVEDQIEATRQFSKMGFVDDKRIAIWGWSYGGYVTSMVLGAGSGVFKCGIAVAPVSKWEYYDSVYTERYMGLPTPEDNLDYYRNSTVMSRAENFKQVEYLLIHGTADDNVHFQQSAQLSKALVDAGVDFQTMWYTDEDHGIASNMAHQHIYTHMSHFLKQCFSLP
T1 sequence (P43220 24-463): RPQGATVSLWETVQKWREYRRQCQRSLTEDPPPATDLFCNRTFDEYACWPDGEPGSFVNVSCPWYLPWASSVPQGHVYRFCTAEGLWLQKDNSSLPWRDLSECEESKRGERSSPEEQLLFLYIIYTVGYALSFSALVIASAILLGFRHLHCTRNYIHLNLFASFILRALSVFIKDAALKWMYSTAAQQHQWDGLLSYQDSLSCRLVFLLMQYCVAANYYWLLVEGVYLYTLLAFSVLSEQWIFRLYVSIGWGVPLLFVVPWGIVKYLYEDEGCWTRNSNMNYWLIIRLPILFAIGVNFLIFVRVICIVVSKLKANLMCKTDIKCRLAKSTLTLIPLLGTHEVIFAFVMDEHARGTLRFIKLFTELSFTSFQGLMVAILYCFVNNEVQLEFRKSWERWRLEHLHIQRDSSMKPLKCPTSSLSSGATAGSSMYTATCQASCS

On to “GLP-1 (7-36 amide) (HAEGTFTSDVSSYLEGQAAKEFIAWLVKGR-NH2) [native GLP-1, made by solid phase synthesis, reference compound]”, for which the insulin secretion-promoting activity entry in the data set on Langerhans islets was “Amount-dependent insulin secretion-promoting activity”.
As for “HAEGTFTSDVSSYLEGQAAQEFIAWLVNGR-NH2 [[Gln^26, Asn^34]-GLP-1 (7-36 amide)]”, on human GLP-1 receptor, the “cyclic AMP production activity” value is given as “same level of cyclic AMP production activity as native GLP-1”. Further, the “activity before and after trypsin treatment (trypsin resistance)” value on trypsin [1] is “no difference of activity before and after trypsin treatment”.
With “HSEGTFTSDVSSYLEGQAAQEFIAWLVNGR-OH [[Ser^8, Gln^26, Asn^34]-GLP-1 (7-36), [Ser^8, Gln^26, Asn^34]-GLP-1 (7-36)]”, the insulin secretion-promoting activity entry in the data set on Langerhans islets is on record as “Amount-dependent insulin secretion-promoting activity”. Moreover, the “insulin secretion-promoting activity at high concentration” value with Langerhans islets (high concentration) is given as “strong insulin secretion-promoting activity”. In data set [2], the “peak value of blood glucose increase / hypoglycemic action” value is reported as “strong action”. Also, at trypsin [1], the “variation in activity by trypsin treatment (trypsin resistance)” value was “no variation in activity by trypsin treatment”. In addition, the DPP-IV resistance entry at DPP-IV is reported as “obvious DPP-IV resistance”.
For [Ser^8, Gln^26, Asp^34]-GLP-1 (7-36), in the data set with Langerhans islets, the insulin secretion-promoting activity entry is listed as “Amount-dependent insulin secretion-promoting activity”. Further, the “variation in activity by trypsin treatment (trypsin resistance)” value at trypsin [1] is given as “no variation in activity by trypsin treatment”. Further, the “cyclic AMP production activity versus trypsin treatment time” value at trypsin [3] is “the activity was maintained regardless of the trypsin treatment time”. Moreover, the DPP-IV resistance result on DPP-IV is reported as “obvious DPP-IV resistance”.
